The values below come from PMC10121968, “Fosgonimeton, a Novel Positive Modulator of the HGF/MET System, Promotes Neurotrophic and Procognitive Effects in Models of Dementia” (Neurotherapeutics, 2022).

Series [1] has as its system rat scopolamine amnesia model. Nature of the series: Scopolamine Morris water maze study. The format is in vivo. Conditions: 1 mg/kg SC. The protocol: Animals were maintained in accordance with the National Institute of Health Guide for the Care and Use of Laboratory Animals. Rats (14-week-old male Sprague Dawley) from Simonsen laboratories (Gilroy, CA) were used in the scopolamine Morris water maze study. This study was performed at Washington State University and procedures were approved by the Washington State University Institutional Animal Care and Use Committee.
Animals were anesthetized with ketamine hydrochloride plus xylazine (70 mg/kg and 7 mg/kg intraperitoneally, respectively). An intracerebroventricular (ICV) guide cannula (PE-60; Clay Adams, Parsippany, NY) was stereotaxically positioned (model 900; David Kopf Instruments, Tujunga, CA) in the right hemisphere of the brain 1.0 mm posterior and 1.5 mm lateral to the bregma. The guide cannula measured 1.5 cm in length with a heat bulge at 2.5 mm from the beveled tip to control insertion depth. Once in position, the cannula was secured to the skull with screws and dental cement. Animals were housed individually and hand-gentled for 6 days of postsurgical recovery. Histologic verification of cannula placement was accomplished by ICV injection of 4 μL cresyl violet after completion of behavioral testing. Animals for which cannulas were improperly placed were removed from the study.
The Morris water maze consisted of a 183-cm diameter, 64-cm deep tank with a clear circular platform (16-cm diameter) placed 30 cm from the maze wall and submerged 1 cm below the surface of the 26.7 °C water. The maze was virtually divided into 4 equal quadrants with the platform centered in 1 quadrant. Eight visual cues were randomly placed on the maze wall and these cues remained consistent throughout the trials.
Animals received either fosgo-AM (1 mg/kg in DMSO) or volume-matched vehicle (DMSO) by subcutaneous (SC) injection 45 min before testing, followed by ICV injection of scopolamine hydrobromide (105 nmol in 4 μL artificial cerebrospinal fluid [aCSF] over a duration of 40 s) 20 min before testing. […]
Probe trials were conducted on day 9 to determine learning persistence. […] The percentage of trial time spent within the platform region, the number of times that the animal crossed into the platform region, and the average distance from the center of the platform region were recorded. The swimming patterns of the rats were recorded using video tracking software (MediaRecorder and EthoVision software, Noldus, VA, USA).
The daily escape latency (defined as the mean latency to find the platform each day) was calculated for each animal. […] Data collected during the probe trials were assessed for normality (Shapiro–Wilk) and homoscedasticity (Brown-Forsythe) and subsequently analyzed using one-way ANOVA with Bonferroni post hoc tests compared with scopolamine + vehicle controls. […]

A short description of series [2]: Fosgonimeton CNS distribution in mice. Conditions: 5 mg/kg fosgonimeton IV, whole brain, 0.16 h. The format is in vivo, mouse. Here is the method:
Four C57BL/6 mice—2 males and 2 females—were treated with 5 mg/kg fosgonimeton via intravenous (IV) injection. At 0.16 h after dosing, animals were humanely killed and perfused with normal saline. The whole brain was collected and homogenized before determination of fosgonimeton and fosgo-AM tissue penetration by LC/MS/MS.

Setting [3] is: probe trial day 9, vs scopolamine + vehicle.

The structures appear in SMILES notation. Non-standard residues stand in square brackets, D forms with d. Residues, ends and D or L forms follow the SMILES beside them. *: point of attachment. Hexanoyl = CCCCCC(=O)*; Ahx = NCCCCCC(=O)O

Turning to `CCCCCC(=O)N[C@@H](Cc1ccc(O)cc1)C(=O)N[C@H](C(=O)NCCCCCC(N)=O)[C@@H](C)CC` [fosgo-AM] (Hexanoyl-Tyr-Ile-[Ahx]-NH2), in series [1] (8-day acquisition, scopolamine ICV), the escape latency result is “reduced escape latency over time”. In series [1] (setting [3]), the “frequency of entering the platform zone” value was “significantly improved”, the “mean distance from the center of the platform” value was “significantly improved” and the “percentage of time spent in the platform zone” value was “significantly improved”. For the same compound, the “Cmax, ng/g ± SEM” value in series [2] was found to be 7.9 ± 2.3 ng/g.
